# Measured values reported in patent US5278186A, “Chromene derivatives, their production and use” (Takeda Chemical Industries, Ltd., priority 1990, dated 1994).
# Target: T1, Acyl-CoA : cholesterol acyltransferase (ACAT) (Rattus norvegicus, UniProt Q7TQM4)
# T1 construct: from the mucosal microsome fraction of the small intestine; from tissue; host or cells: small intestine mucosa (microsome fraction), Sprague-Dawley rat
# T1 sequence (Q7TQM4 1-524): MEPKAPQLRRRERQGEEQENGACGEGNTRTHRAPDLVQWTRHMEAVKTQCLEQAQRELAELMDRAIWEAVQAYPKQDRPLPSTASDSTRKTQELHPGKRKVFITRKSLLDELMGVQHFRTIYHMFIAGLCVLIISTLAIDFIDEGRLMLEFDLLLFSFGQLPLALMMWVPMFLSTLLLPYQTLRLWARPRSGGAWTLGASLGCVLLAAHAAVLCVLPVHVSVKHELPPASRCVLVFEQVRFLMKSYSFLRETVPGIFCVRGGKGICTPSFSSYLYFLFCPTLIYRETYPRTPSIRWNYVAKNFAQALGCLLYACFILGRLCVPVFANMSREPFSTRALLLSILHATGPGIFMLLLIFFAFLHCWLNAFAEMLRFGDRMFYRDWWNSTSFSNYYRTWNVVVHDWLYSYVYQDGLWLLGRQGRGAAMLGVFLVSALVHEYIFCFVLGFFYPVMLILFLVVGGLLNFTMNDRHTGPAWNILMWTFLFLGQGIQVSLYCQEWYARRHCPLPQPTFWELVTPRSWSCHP
# Experiment: Acyl-CoA : cholesterol acyltransferase (ACAT) inhibitory activity
# Type: biochemical
# Details: 10^-6 M; mucosal microsome fraction of small intestine of male 6-week old fasted Sprague-Dawley rats; labeled cholesterol ester from [1^14 C] oleoyl-CoA; read-out: ACAT Inhibition Rate (%) 10^-6 M
# Description: The enzyme ACAT was prepared by the method of Heider et al. described in Journal of Lipid Research, Vol. 24, page 1127 (1982), from the mucosal microsome fraction of the small intestine of male, 6-week old Sprague-Dawley rats which had been fasted for 20 hours.
# ACAT activity was calculated by the method of Helgerud et al. described in Journal of Lipid Research, Vol. 22, page 271 (1981), namely, by measuring the amount of the labeled cholesterol ester produced from [1^14 C] oleoyl-CoA and endogenous cholesterol.
# Inhibition rates (%) of the production of the labeled cholesterol ester wherein 10^-6 M or 10^-8 M of test compounds were added are shown as an index of ACAT inhibitory activity in Table 1.
row,SMILES,inhibition at 1 µM [%]
1,"Cc1ccccc1-c1c(NC(=O)Nc2ccc(F)cc2F)c(=O)oc2ccc(Cl)cc12 [Example 1, N-[6-chloro-4-(2-methylphenyl)-2-oxo-2H-1-benzopyran-3-yl]-N'-(2,4-difluorophenyl) urea]",99
2,"Cc1ccccc1-c1c(NC(=O)Nc2ccc(F)cc2F)c(=O)oc2ccc(C(C)C)cc12 [Example 2, N-(2,4-difluorophenyl)-N'-[6-isopropyl-4-(2-methylphenyl)-2-oxo-2H-1-benzopyran-3-yl] urea]",99
3,"Cc1cc2oc(=O)c(NC(=O)Nc3ccc(F)cc3F)c(-c3ccccc3C)c2cc1C [Example 3, N-(2,4-difluorophenyl)-N'-[4-(2-methylphenyl)-6,7-dimethyl-2-oxo-2H-1-benzopyran-3-yl] urea]",99.2
4,"COc1cc(C=CC(=O)Nc2c(-c3ccccc3C)c3cc(Cl)c(C)cc3oc2=O)cc(OC)c1OC(C)=O [Example 19, 3-(4-acetoxy-3,5-dimethoxycinnamoylamino)-6-chloro-7-methyl-4-(2-methylphenyl)-2H-1-benzopyran-2-one]",92.3
5,"Cc1cc2oc(=O)c(NC(=O)Nc3cccc(C(F)(F)F)c3)c(-c3ccccc3C)c2cc1Cl [Example 20, N-[6-chloro-7-methyl-4-(2-methylphenyl)-2-oxo-2H-1-benzopyran-3-yl]-N'-(3-trifluoromethylphenyl) urea]",84.8
6,"Cc1cc2sc(=O)c(NC(=O)Nc3ccc(F)cc3F)c(-c3ccccc3C)c2cc1Cl [Example 22, N-[6-chloro-7-methyl-4-(2-methylphenyl)-2-oxo-2H-1-thiobenzopyran-3-y-1)-N'-(2,4-difluorophenyl) urea]",97
7,"COc1cc(NC(=O)Nc2c(-c3ccccc3Cl)c3cc(C)ccc3oc2=O)cc(OC)c1OC(C)=O [Example 24, N-(4-acetoxy-3,5-dimethoxyphenyl)-N'-[4-(2-chlorophenyl)-6-methyl-2-oxo-2H-1-benzopyran-3-yl] urea]",98.6
8,"COc1cc(NC(=O)Nc2c(-c3ccccc3C)c3cc(C)c(C)cc3oc2=O)cc(OC)c1OC(C)=O [Example 25, N-(4-acetoxy-3,5-dimethoxyphenyl)-N'-[6,7-dimethyl-4-(2-methylphenyl)-2-oxo-2H-1-benzopyran-3-yl]urea]",98.8
9,"COc1cc(NC(=O)Nc2c(-c3ccccc3C)c3cc(Cl)c(C)cc3oc2=O)cc(OC)c1OC(C)=O [Example 26, N-(4-acetoxy-3,5-dimethoxyphenyl)-N,-[6-chloro-7-methyl-4-(2-methylphenyl)-2-oxo-2H-1-benzopyran-3-yl]urea]",98.5
10,"CC(=O)Oc1c(C)cc(NC(=O)Nc2c(-c3ccccc3C)c3cc(Cl)c(C)cc3oc2=O)cc1C [Example 27, N-(4-acetoxy-3,5-dimethylphenyl)-N'-[6-chloro-7-methyl-4-(2-methylphenyl)-2-oxo-2H-1-benzopyran-3-yl]urea]",99.1
11,"Cc1cc2oc(=O)c(NC(=O)c3ccc(F)cc3F)c(-c3ccccc3C)c2cc1Cl [Example 29, 6-chloro-3-(2,4-difluorobenzoylamino)-7-methyl-4-(2-methylphenyl)-2H-1-benzopyran-2-one]",95.4
12,"CC(C)c1ccc2oc(=O)c(NC(=O)Nc3ccc(F)cc3F)c(-c3ccc(F)cc3)c2c1 [Example 30, N-(2,4-difluorophenyl)-N'-[4-(4-fluorophenyl)-6-isopropyl-2-oxo-2H-1-benzopyran-3-yl] urea]",90.2

# Same assay, conditions: 10^-8 M; mucosal microsome fraction of small intestine of male 6-week old fasted Sprague-Dawley rats; labeled cholesterol ester from [1^14 C] oleoyl-CoA; read-out: ACAT Inhibition Rate (%) 10^-8 M
row,SMILES,inhibition at 0.01 µM [%]
1,"Cc1cc2oc(=O)c(NC(=O)Nc3ccc(Cl)cc3)c(-c3ccccc3C)c2cc1C [Example 4, N-(4-chlorophenyl)-N'-[6,7-dimethyl-4-(2-methylphenyl)-2-oxo-2-H-1-benzopyran-3-yl] urea]",69.7
2,"CCc1ccc2oc(=O)c(NC(=O)Nc3ccc(F)cc3F)c(-c3ccccc3C)c2c1 [Example 6, N-[6-ethyl-4-(2-methylphenyl)-2-oxo-2H-1-benzopyran-3-yl]-N'-(2,4-difluorophenyl) urea]",45.9
3,"Cc1cc2oc(=O)c(NC(=O)Nc3ccc(F)cc3F)c(-c3ccccc3C)c2cc1Cl [Example 7, N-[6-chloro-7-methyl-4-(2-methylphenyl)-2-oxo-2H-1-benzopyran-3-yl)-N'-(2,4-difuorophenyl) urea]",81.7
4,Cc1cc2oc(=O)c(NC(=O)Nc3ccc(F)cc3F)c(-c3ccccc3Cl)c2cc1C [Example 11],86.7
5,"Cc1ccc2oc(=O)c(NC(=O)Nc3ccc(F)cc3F)c(-c3ccccc3C)c2c1 [Example 16, N-[2,4-difluorophenyl)-N'-[6-methyl-4-(2-methylphenyl)-2-oxo-2H-1-benzopyran-3-yl) urea]",42.7
6,"Cc1cc2c(-c3ccccc3C)c(NC(=O)Nc3ccc(F)cc3F)c(=O)oc2cc1Cl [Example 17, N-[7-chloro-6-methyl-4-(2-methylphenyl)-3-oxo-2H-1-benzopyran-3-yl)-N'-(2,4-difluorophenyl) urea]",84.2
7,"Cc1ccc2oc(=O)c(NC(=O)Nc3ccc(F)cc3F)c(-c3ccccc3Cl)c2c1 [Example 18, N-[4-(2-chlorophenyl)-6-methyl-2-oxo-2H-1-benzopyran-3-yl)-N'-(2,4-difluorophenyl) urea]",56.1
8,"Cc1cc2oc(=O)c(NC(=O)Cc3ccc(F)cc3F)c(-c3ccccc3C)c2cc1Cl [Example 28, 6-chloro-3-(2,4-difluorophenylacetylamino)-7-methyl-4-(2-methylphenyl)-2H-1-benzopyran-2-one]",34.3
